Source: US10041047B2, “Compositions and methods for epithelial stem cell expansion and culture” (The Brigham and Women's Hospital, Inc., priority 2013, dated 2018)

What was measured:
single Lgr5-GFP cells = assay: Culture of FACS-sorted single Lgr5-GFP cells: colony formation, proliferation, GFP expression; type: cell-based; conditions: for GFP expression / cell proliferation: single GFP-high cells, 7 day culture with ENR
Protocol: Crypts and single Lgr5-GFP cells were isolated as previously described (Sato et al., 2009). Briefly, the proximal half of the small intestine was harvested, opened longitudinally, and washed with cold PBS to remove luminal content. The tissue was then cut into 2-4 mm pieces with scissors and further washed 5-10 times with cold PBS by pipetting up and down using a 10-ml pipette. Tissue fragments were incubated with 2 mM EDTA in PBS for 30 min on ice. After removal of EDTA, tissue fragments were washed with PBS to release crypts. Supernatant fractions enriched in crypts were collected, passed through a 70 μm cell strainer and centrifuged at 300 g for 5 minutes. The cell pellet was re-suspended with cell culture media without growth factors and centrifuged at 150 g to remove single cells. Crypts were then cultured or used for single cell isolation. To obtain single cells, crypts were incubated in culture medium for 45 minutes at 37° C. and triturated with a glass pipette. Dissociated cells were passed through 20 μm cell strainer, negative stained with propidium iodide and single viable GFP-high cells were sorted by flow cytometry (FACS Aria, BD) as previously described (Sato et al., 2009). […] Isolated crypts or single cells were cultured as previously described (Sato et al., 2009) with minimal modification. Briefly, crypts or single cells were entrapped in Matrigel and plated at the center of wells in a 24-well plate. After polymerization of Matrigel (growth factor reduced; BD Bioscience), 500 μl of culture medium (Advanced DMEM/F12 (Life Technologies)) was added containing growth factors including EGF (50 ng/ml, Life Technologies), Noggin (100 ng/ml, Peprotech) and R-spondin 1 (500 ng/ml, R&D) and small molecules including CHIR99021 (3 μM, Stemgent) and Valproic Acid (1 mM, Sigma-Aldrich). For comparison of different culture conditions, small molecules or growth factors were added to freshly isolated crypts immediately after plating in Matrigel to test the ability to minimize potential differentiation of the ISC within the crypts and thus sustain crypt cultures. Cell culture media was changed every other day. For single cell culture, cells were embedded in Matrigel containing Jagged-1 peptide (1 μM; AnaSpec) and Y-27632 (10 μM; Tocris) was added for the first 2 days. Cells were passaged either as cell colonies as previously described (Sato et al., 2009) or as single cells. For single cell passage, cell culture medium was removed and Accutase (Life Technologies) was added. After incubation at 37° C. for 10-20 minutes, cell colonies were dissociated into single cells by pipetting. Cells were then washed, embedded in fresh Matrigel and plated into 24-well plates. Cells cultured in the CV condition were passaged every 6 days at a 1:20 split ratio.
The Rho kinase inhibitor Y-27632, which inhibits anoikis of single stem cells (Watanabe et al., 2007), was added for the first two days as previously described (Sato et al., 2009).

Lgr5+ stem cells [1] = assay: Controlled differentiation of Lgr5+ stem cells after CV culture (RT-PCR and staining of differentiation markers); type: cell-based, mouse; conditions: colonies from 6 days CV, then 4 days with ENR plus agents (FIG. 7B)
[2] = tested on: Lgr5+ stem/progenitor cells derived from the mouse inner ear; assay: Culture of inner ear (cochlear) Lgr5-GFP epithelial cells in Matrigel; type: cell-based; conditions: organ of Corti single cells, Matrigel, 8 days
From the text: The same culture condition (EGF, Noggin, R-spondin1, or “ENR”) as used in Lgr5+ small intestinal stem cell cultures was first established.
Isolated organ of Corti from Lgr5-GFP mice were dissociated into single cells using accutase and cultured in multiple combinations of soluble factors and small molecules in Matrigel for 8 days. The resulting cultures were further dissociated into single cells and analyzed using FACS. […] In addition, the combination of EGF, bFGF and IGF-1 (designated as EFI) improved cell proliferation and GFP expression compared with the ENR condition (FIG. 14A-14C).
To further investigate the effects of individual growth factors when combined with CHIR and VPA, growth factors including Mitogenic growth factors (EGF, bFGF and IGF-1) as well as the Wnt agonist R-spondin 1 in combination with CHIR and VPA were tested.

Lgr5+ stem cells [3] = assay: Quantitative real-time PCR of mature intestinal epithelial cell markers and Lgr5, 6 day culture (FIG. 6D); type: cell-based, mouse
Protocol: FIGS. 6A-6D depict maintenance of Lgr5+ stem cell self-renewal by the combination of CHIR and VPA. Confocal images of Lysozyme (FIG. 6A), Ki67 (FIG. 6B) and EdU (FIG. 6C) staining of organoids cultured under the ENR condition (Upper panels) and colonies cultured in the ENR-CV condition (Lower panels) are shown. For EdU staining, cells were cultured with the thymidine analogue EdU (red) for 1 hour. In FIGS. 6B and 6C, only crypt domains contain Ki67 positive cells or incorporate EdU in the ENR condition (Upper panels) while Ki67 or EdU is present throughout the cell aggregates in the CV condition (Lower panels). FIG. 6D depicts quantitative real-time PCR analysis of relative mRNA expression of markers for mature intestinal epithelial cells cultured for 6 days under conditions as indicated (Intestinal Alkaline phosphatase [Alpi] for enterocytes, Mucin 2 [Muc2] for goblet cells, Chromogranin A [ChgA] for enteroendocrine cells, Lysozyme [Lyz] for Paneth cells, and Lgr5 for intestinal stem cells). ENR-CV(D40) indicates cells that were cultured in the CV condition for 40 days. Scale bars: 50 μm. In FIG. 6D, the series are, from left to right, Alpi, Muc2, ChgA, Lyz, and Lgr5.
As previously reported, cells in the ENR condition grew into organoids with crypt-villus structure containing all intestinal epithelial cell types, confirmed by staining of alkaline phosphatase (Alp) positive enterocytes, Mucin 2 (Muc2) positive goblet cells, Chromogranin A (ChgA) positive enteroendocrine cells, Lysozyme (Lyz) positive Paneth cells and Lgr5-GFP^+ stem cells. Lgr5^+ stem cells only reside at the tips of crypt (FIGS. 6A and 7A). […] In the CV condition, however, GFP^+ stem cells were present throughout the entire colony with minimal presence of Paneth cells (FIG. 6A) and without the presence of other cells types. Compared to ENR culture, Ki67 or EdU positive proliferating cells in the CV condition existed throughout the cell colony (FIGS. 6B and 6C). […] This expression pattern was maintained over multiple passages, and the Lgr5 expression level was maintained (FIG. 6D). […]

Structure (SMILES)	increase of colony-forming efficiency (single Lgr5-GFP cells; CHIR added to ENR, single Lgr5-GFP+ cells)	GFP expression (single Lgr5-GFP cells)	cell proliferation (single Lgr5-GFP cells)	ChgA expression (Lgr5+ stem cells [1])	GFP expression (in words) [2]	cell proliferation (in words) [2]	Paneth cell differentiation (Lgr5+ stem cells [3])	enterocyte differentiation (Lgr5+ stem cells [3])	colony-forming efficiency (in words) (single Lgr5-GFP cells; single Lgr5-GFP+ cells, agent(s) added to ENR)	Lysozyme expression (Lgr5+ stem cells [1])	Muc2 expression (Lgr5+ stem cells [1])	secretory differentiation (Lgr5+ stem cells [3])
Cc1cnc(-c2cnc(NCCNc3ccc(C#N)cn3)nc2-c2ccc(Cl)cc2Cl)[nH]1 [CHIR99021, 6-[[2-[[4-(2,4-Dichlorophenyl)-5-(5-methyl-1H-imidazol-2-yl)-2-pyrimidinyl]amino]ethyl]amino]-3-pyridinecarbonitrile]	20-50 fold	only moderately increased	significantly increased cell proliferation	did not significantly influence	not CHIR or VPA alone	not CHIR or VPA alone	increased	reduces				
CCCC(CCC)C(=O)O [Valproic Acid]		promoted GFP expression	minimal pro-proliferative effect	lower level of expression	not CHIR or VPA alone	not CHIR or VPA alone			only weakly increased	lower level of expression	lower level of expression	decreased
